Experimental data from US12428430B2 (BRISTOL-MYERS SQUIBB COMPANY, priority 2018, dated 2025).

Assays:
[1] = system: human foetal lung fibroblasts; conditions: Tager et al. Nature Medicine 2008; cited from earlier work
[2] = system: UUO mice; conditions: compared with LPA1 (−/−) mice; cited from earlier work
[3] = system: mouse epithelial renal cell line, MCT; conditions: co-treatment with LPA, MCT cells; cited from earlier work
[4] = system: pancreatic cancer cell lines; conditions: cited from earlier work
[5] = biological target: T1, hLPA1 (Homo sapiens, UniProt Q92633); assay: hLPA1 Binding
[6] = system: nerve-injured mice; conditions: pretreatment; cited from earlier work
[7] = biological target: T1, hLPA1; assay: LPA1 functional antagonist assay (LPA-induced calcium flux in CHO cells overexpressing human LPA1); type: cell-based; parameters: expressed in transfected cells; host or cells: Chinese hamster ovary (CHO) cells; conditions: antagonist mode, inhibition of calcium flux induced by 10 nM LPA, read-out: hLPA1 IC50
Experimental: The effectiveness of compounds of the present invention as LPA1 inhibitors can be determined in an LPA1 functional antagonist assay as follows:
Chinese hamster ovary cells overexpressing human LPA1 were plated overnight (15,000 cells/well) in poly-D-lysine coated 384-well microplates (Greiner bio-one, Cat #781946) in DMEM/F12 medium (Gibco, Cat #11039). Following overnight culture, cells were loaded with calcium indicator dye (AAT Bioquest Inc, Cat #34601) for 30 minutes at 37° C. The cells were then equilibrated to room temperature for 30 minutes before the assay. Test compounds solubilized in DMSO were transferred to 384 well non-binding surface plates (Corning, Cat #3575) using the Labcyte Echo acoustic dispense and diluted with assay buffer [1×HBSS with calcium/magnesium (Gibco Cat #14025-092), 20 mM HEPES (Gibco Cat #15630-080) and 0.1% fatty acid free BSA (Sigma Cat #A9205)] to a final concentration of 0.5% DMSO. Diluted compounds were added to the cells by FDSS6000 (Hamamatsu) at final concentrations ranging from 0.08 nM to 5 μM. and were then incubated for 20 min at room temperature at which time LPA (Avanti Polar Lipids Cat #857130C) was added at final concentrations of 10 nM to stimulate the cells. The compound IC50 value was defined as the concentration of test compound which inhibited 50% of the calcium flux induced by LPA alone. IC50 values were determined by fitting data to a 4-parameter logistic equation (GraphPad Prism, San Diego Calif.).

T1 sequence (Q92633 whole entry): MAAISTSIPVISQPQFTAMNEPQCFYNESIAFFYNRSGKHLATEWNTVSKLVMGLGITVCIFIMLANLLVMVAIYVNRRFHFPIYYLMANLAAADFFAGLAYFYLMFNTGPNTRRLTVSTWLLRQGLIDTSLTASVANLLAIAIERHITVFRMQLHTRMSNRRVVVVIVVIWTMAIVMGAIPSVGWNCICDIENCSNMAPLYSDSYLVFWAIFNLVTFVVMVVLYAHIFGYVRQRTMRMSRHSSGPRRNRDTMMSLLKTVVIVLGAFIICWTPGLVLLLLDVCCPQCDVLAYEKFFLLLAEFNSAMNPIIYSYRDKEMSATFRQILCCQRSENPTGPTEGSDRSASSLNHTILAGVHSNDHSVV

Cc1noc(-c2ccc(CSCCC(=O)O)cc2)c1NC(=O)OC(C)c1ccccc1Cl (stereo not drawn) [Ki16425]
chemotaxis of human foetal lung fibroblasts induced by BAL from IPF patients [1]: blocked | development of renal fibrosis in UUO mice [2]: closely resembled the profile of LPA1 (−/−) mice | LPA-induced expression of the profibrotic cytokine CTGF [3]: almost completely suppressed | in vitro migration in response to LPA and ascites from pancreatic cancer patients ([4]; Yamada et al, J. Biol. Chem. 2004): effectively blocked | LPA-induced and ascites-induced invasion activity ([4]; highly peritoneal metastatic pancreatic cancer cell line): blocked

Cc1noc(C23CCC(c4ccc(CC(=O)O)cc4)(CC2)OC3)c1NC(=O)O[C@H](C)C1CC1 [Example 55, (R)-2-(4-(4-(4-(((1-cyclopropyl-ethoxy)carbonyl)amino)-3-methyl-isoxazol-5-yl)-2-oxabicyclo[2.2.2]octan-1-yl)phenyl)acetic acid]
Ki [5]: 724 nM

C[C@@H](N)[C@H]1CC[C@H](C(=O)Nc2ccncc2)CC1 [Example Y-27632]
allodynia and hyperalgesia [6]: completely abolished

C[C@@H](OC(=O)Nc1c(-c2ccc(C34CCC(CC(=O)O)(CC3)OC4)c(F)c2)cnn1C)c1ccccc1Cl [Example 31, 2-(4-(4-(5-((((R)-1-(2-chlorophenyl)ethoxy)carbonyl)amino)-1-methyl-1H-pyrazol-4-yl)-2-fluorophenyl)-2-oxabicyclo[2.2.2]octan-1-yl)acetic acid]
IC50 [7]: 112 nM

Cc1noc(C23CCC(c4ccc(CC(=O)O)cc4)(CC2)OC3)c1NC(=O)O[C@H](C)c1ccccc1 [Example 54, (R)-2-(4-(4-(3-methyl-4-(((1-phenylethoxy)carbonyl)amino)isoxazol-5-yl)-2-oxabicyclo[2.2.2]octan-1-yl)phenyl)acetic acid]
IC50 [7]: 88 nM

Cc1noc(-c2ccc(C34CCC(CC(=O)O)(CC3)OC4)cc2)c1NC(=O)O[C@H](C)c1ccccc1Cl [Example 12, 2-(4-(4-(4-((((R)-1-(2-chlorophenyl)ethoxy)carbonyl)amino)-3-methylisoxazol-5-yl)phenyl)-2-oxabicyclo[2.2.2]octan-1-yl)acetic acid]
IC50 [7]: 72 nM

Cc1noc(-c2ccc(C34CCC(CC(=O)O)(CC3)OC4)cc2)c1NC(=O)O[C@H](C)c1ccccc1 [Example 1, 2-(4-(4-(3-methyl-4-((((R)-1-phenylethoxy)carbonyl)amino)isoxazol-5-yl)phenyl)-2-oxabicyclo [2.2.2]octan-1-yl)acetic acid]
IC50 [7]: 116 nM

Cc1noc(-c2ccc(C34CCC(CC(=O)O)(CC3)CO4)cc2)c1NC(=O)O[C@H](C)C1CC1 [Example 47, 2-(1-(4-(4-((((R)-1-cyclopropylethoxy)carbonyl)amino)-3-methylisoxazol-5-yl)phenyl)-2-oxabicyclo[2.2.2]octan-4-yl)acetic acid]
IC50 [7]: 583 nM
